Data: patent US9872861B2, “Methods of treatment using selective Bcl-2 inhibitors” (AbbVie Inc., priority 2010, dated 2018)
Where two headings read alike, the source gives them in different places. Marks after values point to notes of the source that are not given here.

Legend:
[1] = system: peripheral blood immune cells; assay: Peripheral blood lymphocytes in C57BL/6 mice, Cell Dyn hematology analyzer; type: in vivo; conditions: for inhibition in vivo at 100 mg/kg: Mus musculus, Lymphocyte
Method: The effect of the Bcl-2 selective/Bcl-XL sparing compounds on peripheral blood immune cells was also evaluated in C57BL/6 mice. Mice were treated four days with individual compounds (100 mg/kg, orally every day) and cell numbers were measured with a Cell Dyn hematology analyzer.

[2] = biological target: Mcl-1 (Homo sapiens, UniProt Q07820); assay: TR FRET competitive binding affinity, Mcl-1; conditions: read-out: Target Affinity TR FRET, Mcl-1
Sequence of Mcl-1 (Q07820 whole entry): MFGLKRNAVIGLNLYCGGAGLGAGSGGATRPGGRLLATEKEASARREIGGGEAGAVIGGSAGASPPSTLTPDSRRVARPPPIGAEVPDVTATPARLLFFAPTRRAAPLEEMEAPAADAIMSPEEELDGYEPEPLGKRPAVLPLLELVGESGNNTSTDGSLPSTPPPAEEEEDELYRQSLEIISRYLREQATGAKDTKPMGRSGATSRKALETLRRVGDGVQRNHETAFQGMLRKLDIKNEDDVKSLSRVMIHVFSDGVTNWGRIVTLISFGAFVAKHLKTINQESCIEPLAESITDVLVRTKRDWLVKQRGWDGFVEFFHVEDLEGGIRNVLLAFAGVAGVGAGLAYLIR
Method: (§1) A comparison of the binding affinity for each of the compounds was performed to determine target affinity, as measured by Time-Resolved Fluorescence Resonance Energy Transfer (TR FRET).

[3] = system: H146 cells; assay: Cellular efficacy in Bcl-XL dependent tumor cell line H146; type: cell-based; conditions: Homo sapiens, NCI-H146; 10% HS
[4] = system: RS4;11 cells; assay: Cellular efficacy in Bcl-2 dependent tumor cell line RS4;11; type: cell-based, human; conditions: Homo sapiens, RS4-11; 10% HS
[5] = biological target: Bcl-XL (Homo sapiens, UniProt Q07817); assay: TR FRET competitive binding affinity, Bcl-XL; conditions: read-out: Target Affinity TR FRET, Bcl-XL
Sequence of Bcl-XL (Q07817 whole entry): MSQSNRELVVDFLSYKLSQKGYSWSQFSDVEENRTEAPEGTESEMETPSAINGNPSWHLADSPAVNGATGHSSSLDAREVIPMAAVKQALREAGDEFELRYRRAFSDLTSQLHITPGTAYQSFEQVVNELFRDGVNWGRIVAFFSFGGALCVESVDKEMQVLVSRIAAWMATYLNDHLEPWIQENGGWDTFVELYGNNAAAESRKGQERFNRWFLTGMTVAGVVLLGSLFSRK
Method: as §1

[6] = biological target: Bcl-2 (Homo sapiens, UniProt P10415); assay: TR FRET competitive binding affinity, Bcl-2; conditions: read-out: Target Affinity TR FRET, Bcl-2
Sequence of Bcl-2 (P10415 whole entry): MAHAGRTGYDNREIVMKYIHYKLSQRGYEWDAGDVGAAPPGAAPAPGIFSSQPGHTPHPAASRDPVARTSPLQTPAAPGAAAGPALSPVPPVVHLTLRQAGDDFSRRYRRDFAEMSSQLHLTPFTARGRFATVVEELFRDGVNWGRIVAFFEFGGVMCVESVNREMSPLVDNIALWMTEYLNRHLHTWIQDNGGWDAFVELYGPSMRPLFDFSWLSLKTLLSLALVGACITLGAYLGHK
Method: as §1

[7] = system: FL5.12-Bcl-2 cells; assay: Cellular efficacy in FL5.12 cells dependent on Bcl-2; type: cell-based, murine; conditions: Mus musculus, 3% FBS
[8] = system: FL5.12-Bcl-XL cells; assay: Cellular efficacy in FL5.12 cells dependent on Bcl-XL; type: cell-based, murine; conditions: Mus musculus, 3% FBS
[9] = system: spontaneous (NZB×NZW)F1 murine model of lupus; assay: Spontaneous (NZB×NZW)F1 murine model of lupus: proteinuria, survival, lymphopenia; type: in vivo, (NZB×NZW)F1 mice; conditions: Week 47, 100 mg/kg daily oral
Excerpt: (See Liu, K. and C. Mohan, What do mouse models teach us about human SLE? Clin Immunol, 2006. 119(2): p. 123-30) This model has been well-characterized with respect to the patho-physiological changes analogous to those of human SLE. […] Renal histopathological changes include severe glomerulonephritis, mesangial and peripheral proliferative changes, capillary membrane thickening, tubular atrophy, and infiltration of lymphocytes and monocytes/macrophages as in the majority of human SLE patients. These changes result in disruption of kidney function as evidenced by severe proteinuria (PU) greater than 300 mg/dL as measured by albumin sticks, followed by mortality as measured by survival. […] (See Gelfand, M. C. and A. D. Steinberg, Therapeutic studies in NZB-W mice. II. Relative efficacy of azathioprine, cyclophosphamide and methylprednisolone. Arthritis Rheum, 1972. 15(3): p. 247-52; and Ramos, M. A., et al., Modulation of autoantibody production by mycophenolate mofetil: effects on the development of SLE in (NZB×NZW)F1 mice. Nephrol Dial Transplant, 2003. 18(5): p. 878-83)
(NZB×NZW)F1 females were purchased from The Jackson Laboratory (Bar Harbor, Me., USA) and maintained in a conventional animal housing facility throughout the experiment. […] Proteinuria (PU) and survival were monitored weekly, followed by biweekly measurement of lymphocyte and platelet counts, and anti-ds DNA production. PK parameters were also measured throughout the study. Impact on IgG deposition and renal pathology were assessed at the conclusion of the study. Severe PU was defined by two consecutive weekly measurements of PU 300 mg/dl using Albustix test strips (VWR). When mice became moribund, they were sacrificed according to Institutional Animal Care and Use Committee protocols. PU and survival data were presented as Kaplan-Meyer survival curves using Graphpad Prism software and group differences were considered significant at the level of p<0.05. Histologic scores were analyzed using ANOVA analysis. Anti-ds DNA were analyzed using one-way ANOVA analysis and Tukey post-test.

[10] = system: IFNα-induced (NZB×NZW)F1 lupus model; assay: IFNα-induced (NZB×NZW)F1 lupus model: proteinuria, survival, lymphopenia; type: in vivo, (NZB×NZW)F1 mice; conditions: 100 mg/kg/day orally
Method: Treatment was initiated in a late-prophylactic mode (7 days after IFNα adenovirus). […] All treatment groups were administered treatment 7 days after adenovirus injection. Following adenovirus injection, mice were monitored weekly for proteinuria (PU) using Albustix test strips (VWR). Severe PU was defined by consecutive weekly measurements of PU≧300 mg/dl. When mice became moribund, they were sacrificed according to Institutional Animal Care and Use Committee protocols.

[11] = biological target: T1, Bcl-w (Homo sapiens, UniProt Q92843); assay: TR FRET competitive binding affinity, Bcl-w; conditions: read-out: Target Affinity TR FRET, Bcl-w
T1 sequence (Q92843 1-193): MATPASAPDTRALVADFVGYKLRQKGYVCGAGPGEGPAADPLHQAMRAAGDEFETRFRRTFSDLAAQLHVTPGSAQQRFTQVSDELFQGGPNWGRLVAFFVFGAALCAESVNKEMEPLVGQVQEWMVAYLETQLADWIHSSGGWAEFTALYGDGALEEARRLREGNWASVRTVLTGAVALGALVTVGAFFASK
Method: as §1

[12] = system: peripheral blood immune cells and platelets; assay: Peripheral blood lymphocytes and platelets in (NZB×NZW)F1 mice, Cell Dyn hematology analyzer; type: in vivo
[13] = 24 h, 1 oral dose of 100 mg/kg, read-out: Day 1 % Reduction vs. Vehicle
[14] = 96 h, 4 oral doses of 100 mg/kg, read-out: Day 4 % Reduction vs. Vehicle
[15] = (NZB×NZW)F1 mice, four days, orally every day
[16] = 30 and 100 mg/kg intraperitoneal every day, four days

Row | Ki [2] [nM] | EC50 [3] [nM] | EC50 [4] [nM] | Ki [5] [nM] | Ki [6] [nM] | EC50 [7] [nM] | EC50 [8] [nM] | SMILES | Day 1 Lymphocytes ([1]; 1 oral dose of 100 mg/kg) | Day 4 lymphocytes ([1]; 4 oral doses of 100 mg/kg) | inhibition in vivo at 100 mg/kg [1, 13] [%] | inhibition in vivo at 100 mg/kg [1, 14] [%] | further results
1 | > 224 | 3660 | 23 | 27 | < 0.01 |  |  | CC1(C)CCC(CN2CCN(c3ccc(C(=O)NS(=O)(=O)c4cnc(OC[C@H]5CC[C@H](O)CC5)c(Cl)c4)c(Oc4cccc5[nH]ncc45)c3)CC2)=C(c2ccc(Cl)cc2)C1 [Compound 6, Trans-N-({5-chloro-6-[(4-hydroxycyclohexyl)methoxy]pyridin-3-yl}sulfonyl)-4-(4-{[2-(4-chlorophenyl)-4,4-dimethylcyclohex-1-en-1-yl]methyl}piperazin-1-yl)-2-(1H-indazol-4-yloxy)benzamide] | 1.91 ×10^6 | 0.98 ×10^6 | 69 | 85 | 
2 |  | 2750 | 17 | 23 | < 0.01 | 2.3 | 59 | CC1(C)CCC(CN2CCN(c3ccc(C(=O)NS(=O)(=O)c4cnc(OCC5(F)CCOCC5)c(Cl)c4)c(Oc4cccc5[nH]ncc45)c3)CC2)=C(c2ccc(Cl)cc2)C1 [Compound 12, N-({5-chloro-6-[(4-fluorotetrahydro-2H-pyran-4-yl)methoxy]pyridin-3-yl}sulfonyl)-4-(4-{[2-(4-chlorophenyl)-4,4-dimethylcyclohex-1-en-1-yl]methyl}piperazin-1-yl)-2-(1H-indazol-4-yloxy)benzamide] | 1.44 ×10^6 | 2.21 ×10^6 | 78 | 74 | 
3 | > 440 | 2900 | 31 | 21 |  | 12 | 273 | CN1CCN(Nc2ccc(S(=O)(=O)NC(=O)c3ccc(N4CCN(CC5=C(c6ccc(Cl)cc6)CC(C)(C)CC5)CC4)cc3Oc3cnc4[nH]ccc4c3)cc2[N+](=O)[O-])CC1 [Compound 10, 4-(4-{[2-(4-chlorophenyl)-4,4-dimethylcyclohex-1-en-1-yl]methyl}piperazin-1-yl)-N-({4-[(4-methylpiperazin-1-yl)amino]-3-nitrophenyl}sulfonyl)-2-(1H-pyrrolo[2,3-b]pyridin-5-yloxy)benzamide] | 2.25 ×10^6 | 2.48 ×10^6 | 65 | 71 | 
4 |  |  |  |  |  |  |  | COc1c(C)c2c(c(O)c1C/C=C(\C)CCC(=O)OCCN1CCOCC1)C(=O)OC2 [MMF, mycophenolate mofetil, reference compound] |  |  |  |  | % Mice with PU < 300 mg/dL [9]: 94* %; % Survival [9]: 100* %; % Mice with PU < 300 mg/dL [10]: 40* %; % Survival [10]: 72* %
5 |  | > 5000 | 8 | 126 | < 0.01 | 1.2 | 67 | CO[C@H]1CC[C@H](CNc2ccc(S(=O)(=O)NC(=O)c3ccc(N4CCN(CC5=C(c6ccc(Cl)cc6)CC(C)(C)CC5)CC4)cc3Oc3cnc4[nH]ccc4c3)cc2[N+](=O)[O-])CC1 [Compound 5, Trans-4-(4-{[2-(4-chlorophenyl)-4,4-dimethylcyclohex-1-en-1-yl]methyl}piperazin-1-yl)-N-[(4-{[(4-methoxycyclohexyl)methyl]amino}-3-nitrophenyl)sulfonyl]-2-(1H-pyrrolo[2,3-b]pyridin-5-yloxy)benzamide] | 0.98 ×10^6 | 1.02 ×10^6 | 84 | 84 | 
6 |  | 3540 | 22 | 20 | < 0.01 |  |  | CC1(C)CCC(CN2CCN(c3ccc(C(=O)NS(=O)(=O)c4cnc(OC[C@H]5CC[C@H](O)CC5)c(Cl)c4)c(Oc4cc(F)cc5[nH]ncc45)c3)CC2)=C(c2ccc(Cl)cc2)C1 [Compound 14, N-({5-chloro-6-[(trans-4-hydroxycyclohexyl)methoxy]pyridin-3-yl}sulfonyl)-4-(4-{[2-(4-chlorophenyl)-4,4-dimethylcyclohex-1-en-1-yl]methyl}piperazin-1-yl)-2-[(6-fluoro-1H-indazol-4-yl)oxy]benzamide] | 3.02 ×10^6 | 2.33 ×10^6 | 54 | 73 | 
7 |  | 75 | 110 |  |  | 20 | 13 | CC1(C)CCC(c2ccc(Cl)cc2)=C(CN2CCN(c3ccc(C(=O)NS(=O)(=O)c4ccc(N[C@H](CCN5CCOCC5)CSc5ccccc5)c(S(=O)(=O)C(F)(F)F)c4)cc3)CC2)C1 [Compound 2, N-(4-(4-((2-(4-chlorophenyl)-5,5-dimethyl-1-cyclohex-1-en-1-yl)methyl)piperazin-1-yl)benzoyl)-4-(((1R)-3-(morpholin-4-yl)-1-((phenylsulfanyl)methyl)propyl)amino)-3-((trifluoromethyl)sulfonyl)benzenesulfonamide, reference compound] |  |  |  |  | Ki [11]: 7 nM; lymphocytes in peripheral blood [12, 15]: decrease in lymphocytes; platelet counts [12, 15]: significant decrease in platelet counts
8 | 111 | > 5000 | 41 | 151 | 0.119 | 12 | 1060 | CC1(C)CCC(CN2CCN(c3ccc(C(=O)NS(=O)(=O)c4ccc(NCC5CCOCC5)c([N+](=O)[O-])c4)c(Oc4ccc5[nH]ccc5c4)c3)CC2)=C(c2ccc(Cl)cc2)C1 [Compound 3, 4-(4-{[2-(4-chlorophenyl)-4,4-dimethylcyclohex-1-en-1-yl]methyl}piperazin-1-yl)-2-(1H-indol-5-yloxy)-N-({3-nitro-4-[(tetrahydro-2H-pyran-4-ylmethyl)amino]phenyl}sulfonyl)benzamide] | 2.3 ×10^6 | 1.34 ×10^6 | 63 | 79 | lymphocyte reduction ([12]; 30 mg/kg intraperitoneal every day, four days): 47%; CD4+ T cells, CD8+ T cells and CD19+ B cells ([12]; 100 mg/kg and 300 mg/kg): statistically significant decrease; lymphocyte reduction ([12]; 100 mg/kg intraperitoneal every day, four days): 66%; lymphocytes vs phosal vehicle control [12, 16]: dose dependent decrease in lymphocytes; platelet counts [12, 16]: without significantly affecting platelet counts
